Assay results as given in the RepoRT retention time repository (doi:10.1016/j.foodchem.2021.129757).

Assays:
Settings in all cases: stereoisomer not certain
[1] = RP, Waters ACQUITY UPLC HSS T3, 100 × 2.1 mm, 50 °C; A: water + 0.1% formic acid, pH 3; B: 30% methanol + 70% acetonitrile + 0.1% formic acid, pH 3; gradient (min/%B) 0/5 1/8 2/15 3/40 4/70 4.5/100 5/100 6.4/100 6.6/5 6.8/5 7/5
[2] = RP, Agilent ZORBAX RRHD Eclipse Plus C18, 50 × 2.1 mm, 1.8 µm, 30 °C, 0.4 mL/min, estimated dead time 0.28 min; A: water + 0.1% formic acid, pH 3; B: acetonitrile + 0.1% formic acid, pH 3; gradient (min/%B) 0/1 5/10 8/25 9.1/99 10/99 12/99
[3] = RP, Waters Atlantis T3, 100 × 2.1 mm, 3 µm, 40 °C, 0.3 mL/min, estimated dead time 0.73 min; A: water + 0.1% trifluoroacetic acid, pH 2; B: acetonitrile + 0.1% trifluoroacetic acid, pH 2; gradient (min/%B) 0/10 1/10 6/40 7/50 8/50 14/70 16/80 20/10 25/10
[4] = RP, Merck Supelco SUPELCOSIL LC-C18, 250 × 4.6 mm, 5 µm, 40 °C, 1 mL/min, estimated dead time 2.6 min; A: water + 0.1% trifluoroacetic acid, pH 2; B: acetonitrile + 0.1% trifluoroacetic acid, pH 2; gradient (min/%B) 0/5 45/35 47/75 49/35 50/5
[5] = RP, Phenomenex Kinetex EVO C18, 100 × 2.1 mm, 2.6 µm, 40 °C, 0.4 mL/min, estimated dead time 0.55 min; A: water + 0.2% formic acid; B: acetonitrile + 0.2% formic acid; gradient (min/%B) 0/5 0.5/5 7/95 8/95 8.5/5 12/5
[6] = RP, Agilent ZORBAX RRHD Eclipse Plus C18, 50 × 2.1 mm, 1.8 µm, 30 °C, 0.4 mL/min, estimated dead time 0.28 min; A: water + 0.1% formic acid, pH 3; B: acetonitrile + 0.1% formic acid, pH 3; gradient (min/%B) 0/1 5/10 8/25 9.1/99 10/99 12/1
[7] = Other, Phenomenex Kinetex PFP, 100 × 4.6 mm, 5 µm, 45 °C, 0.6 mL/min, estimated dead time 1.8 min; A: water + 0.1% trifluoroacetic acid, pH 2; B: methanol; gradient (min/%B) 0/40 20/72 21/40
[8] = RP, Waters ACQUITY UPLC BEH C18, 100 × 2.1 mm, 1.7 µm, 65 °C, 0.4 mL/min, estimated dead time 0.55 min; A: water + 0.1% formic acid, pH 3; B: 80% acetonitrile + 20% acetone + 0.1% formic acid, pH 3; gradient (min/%B) 0/0 5/100 5.5/0 6/0
[9] = RP, Phenomenex Synergi Hydro-RP, 250 × 2 mm, 4 µm, 25 °C, 0.2 mL/min, estimated dead time 2.5 min; A: water + 0.1% formic acid, pH 3; B: acetonitrile + 0.1% formic acid, pH 3; gradient (min/%B) 0/0.5 7/0.5 12/12.5 25/16.3 47/35 48/65 50/65 50.1/0.5
[10] = RP, Agilent ZORBAX Eclipse XDB-C18, 100 × 2.1 mm, 1.8 µm, 50 °C, 0.4 mL/min, estimated dead time 0.55 min; A: water + 0.1% formic acid, pH 3; B: methanol + 0.1% formic acid, pH 3; gradient (min/%B) 0/2 10/100 14.5/100 14.51/2 16.5/2
[11] = RP, Merck LiChrospher RP-18, 250 × 4 mm, 5 µm, 35 °C, 0.3 mL/min, estimated dead time 6.7 min; A: water + 0.5% formic acid; B: acetonitrile + 0.5% formic acid; gradient (min/%B) 0/5 10/5 30/15 45/20 65/20 95/54 110/63 115/5 135/5
[12] = RP, Waters ACQUITY UPLC HSS T3, 100 × 2.1 mm, 1.8 µm, 30 °C, 0.4 mL/min, estimated dead time 0.55 min; A: water + 0.1% formic acid, pH 3; B: acetonitrile + 0.1% formic acid, pH 3; gradient (min/%B) 0/0 2/0 15/100 22/100 22.1/0 26/0
[13] = RP, Phenomenex Luna Omega Polar C18, 100 × 2.1 mm, 1.6 µm, 40 °C, 0.5 mL/min, estimated dead time 0.44 min; A: water + 0.5% formic acid; B: acetonitrile + 0.5% formic acid; gradient (min/%B) 0/5 3/50 3.1/100 5/100 5.1/5 7/5
[14] = RP, Waters ACQUITY UPLC BEH Shield RP18, 150 × 2.1 mm, 1.7 µm, 40 °C, 0.4 mL/min, estimated dead time 0.83 min; A: water + 0.1% formic acid, pH 3; B: acetonitrile + 0.1% formic acid, pH 3; gradient (min/%B) 0/0 30/50 31/100 37/100 37.1/0
[15] = RP, 50 × 0.5 mm, 2.7 µm, 35 °C, 0.01 mL/min, estimated dead time 0.62 min; A: water + 0.1% formic acid, pH 3; B: acetonitrile + 0.1% formic acid, pH 3; gradient (min/%B) 0/5 12/95 14/95 16/5
[16] = RP, Phenomenex Luna Omega Polar C18, 100 × 2.1 mm, 1.6 µm, 40 °C, 0.5 mL/min, estimated dead time 0.44 min; A: water + 0.1% formic acid + 10 mM ammonium formate; B: acetonitrile; gradient (min/%B) 0/5 8/20 10/100 12/100 12.1/5 14/5
[17] = RP, Agilent InfinityLab Poroshell 120 EC-C18, 100 × 3 mm, 2.7 µm, 25 °C, 0.4 mL/min, estimated dead time 1.1 min; A: water + 0.1% formic acid, pH 3; B: acetonitrile + 0.1% formic acid, pH 3; gradient (min/%B) 0/5 10/25 20/40 24/90 25/90 26/5 30/5
[18] = RP, Phenomenex Luna C18, 150 × 4.6 mm, 3 µm, 25 °C, 0.5 mL/min, estimated dead time 3.2 min; A: water + 0.1% formic acid, pH 3; B: acetonitrile + 0.1% formic acid, pH 3; gradient (min/%B) 0/0 30/30 35/40 50/80 52/80 60/0 65/0
[19] = RP, Waters ACQUITY UPLC BEH Shield RP18, 100 × 2.1 mm, 1.7 µm, 30 °C, 0.6 mL/min, estimated dead time 0.37 min; A: water + 0.1% formic acid, pH 3; B: acetonitrile + 0.1% formic acid, pH 3; gradient (min/%B) 0/0 2/0 7/10 22/95 22.1/0 26/0
[20] = RP, 150 × 2.1 mm, 2.6 µm, 40 °C, 0.35 mL/min, estimated dead time 0.94 min; A: water + 0.1% formic acid, pH 3; B: acetonitrile + 0.1% formic acid, pH 3; gradient (min/%B) 0/0 1/0 12.5/100 14/100 14.2/0 15/0
[21] = RP, 150 × 2.1 mm, 2.6 µm, 40 °C, 0.35 mL/min, estimated dead time 0.94 min; A: water + 0.1% formic acid, pH 3; B: acetonitrile + 0.1% formic acid, pH 3; gradient (min/%B) 0/0 1/5 7/45 8.5/80 10.5/80 11/5 12/5
[22] = RP, 100 × 0.5 mm, 2.7 µm, 45 °C, 0.015 mL/min, estimated dead time 0.83 min; A: water + 0.9% formic acid; B: acetonitrile + 0.9% formic acid; gradient (min/%B) 0/1 0.5/1 4/95 4.5/1 5/1

Compound	LC retention time [1] [min]	LC retention time [2] [min]	LC retention time [3] [min]	LC retention time [4] [min]	LC retention time [6] [min]	LC retention time [7] [min]	LC retention time [8] [min]	LC retention time [9] [min]	LC retention time [10] [min]	LC retention time [11] [min]	LC retention time [12] [min]	LC retention time [13] [min]	LC retention time [14] [min]	LC retention time [15] [min]	LC retention time [17] [min]	LC retention time [18] [min]	LC retention time [19] [min]	other results
O=C(C=Cc1ccc(O)c(O)c1)OC1CC(O)(C(=O)O)CC(O)C1O (stereo not drawn) [Chlorogenic acid]	–	4.49	3.17	13.8	5.31	4.03	1.64	20	3.27	41.1	8.02	1.81	7.05	3.38	5.48	12.3	11	LC retention time [16]: 3.49 min
O=C(O)c1cc(O)c(O)c(O)c1 [Gallic acid]	–	0.713	1.56	5.2	1.64	3	1.5	13.9	1.47	16.5	4.98	1.15	2.41	1.44	2.36	5.35	2.69	LC retention time [5]: 0.96 min; LC retention time [16]: 1.22 min
COc1ccc(C2CC(=O)c3c(O)cc(OC4OC(COC5OC(C)C(O)C(O)C5O)C(O)C(O)C4O)cc3O2)cc1O (stereo not drawn) [Hesperidin]	–	–	10	30.1	–	9.9	–	–	–	75.1	9.62	–	13	–	10.8	–	–	LC retention time [20]: 6 min; LC retention time [21]: 6.18 min
Cn1cnc2c1c(=O)[nH]c(=O)n2C [Theobromine]	2.12	–	–	–	–	–	1.39	–	2.49	–	7.1	1.45	2.67	1.77	3.25	6.29	4.4	LC retention time [22]: 2.05 min
C[n+]1cccc(C(=O)[O-])c1 [Trigonelline]	–	–	–	–	–	–	–	–	–	–	0.96	0.58	1.03	0.771	–	–	0.62	LC retention time [22]: 2.72 min

Continued, in another order:

LC retention time [1] [min]	LC retention time [2] [min]	LC retention time [3] [min]	LC retention time [4] [min]	LC retention time [6] [min]	LC retention time [7] [min]	LC retention time [8] [min]	LC retention time [9] [min]	LC retention time [10] [min]	LC retention time [11] [min]	LC retention time [12] [min]	LC retention time [13] [min]	LC retention time [14] [min]	LC retention time [15] [min]	LC retention time [17] [min]	LC retention time [18] [min]	LC retention time [19] [min]	Compound	other results
2.8	2.55	3.58	11.3	3.9	5.08	1.65	19.9	2.91	39.7	–	–	–	–	–	–	–	O=C(O)c1ccc(O)cc1 [4-Hydroxybenzoic acid]	LC retention time [5]: 2.18 min
–	–	–	33.5	–	12.9	–	–	–	42	–	–	–	–	–	–	–	Oc1ccc(-c2[o+]c3cc(O)cc(O)c3cc2O)cc1 [Pelargonidin]	–
3.74	9.19	9.34	37.2	9.04	16.6	2.63	46.8	–	91	11	–	20.4	–	14.1	–	–	O=c1c(O)c(-c2ccc(O)c(O)c2)oc2cc(O)cc(O)c12 [Quercetin]	–
–	–	7.12	25.2	–	8.63	–	34.1	–	59.2	–	–	12.6	–	8.79	–	–	CC1OC(OCC2OC(Oc3c(-c4ccc(O)c(O)c4)oc4cc(O)cc(O)c4c3=O)C(O)C(O)C2O)C(O)C(O)C1O (stereo not drawn) [Rutin]	–
–	8.66	–	23	7.85	7.73	–	33.9	–	–	9.67	–	12.4	–	–	–	–	O=C1c2c(O)cc(O)cc2OC(c2ccc(O)c(O)c2)C1O (stereo not drawn) [Taxifolin]	LC retention time [20]: 5.84 min; LC retention time [21]: 5.86 min
